Data set [1] in a line: Effectiveness as liberating agent for bilirubin (general statement). Format: in vitro ADME.
From the text: (§1) The term "liberating agent" as used herein defines a reagent which when added to a body fluid, increases the ratio of a free soluble chemical to the total content of that chemical in the body fluid. The total content is the aggregate of both the free soluble and bound states of the chemical. More than one physical mechanism can be encountered with the same resultant advantageous partitioning of the target chemical from the bound to the free soluble phase. […] In general, liberating agents as herein defined are useful in body fluids and in vivo.
Data set [2] is described as follows: Effectiveness as liberating agent for thiopental (general statement). Format: in vitro ADME. The conditions noted are these: specific drugs such as thiopental.
From the text: as §1
Data set [3] has as its system human albumin. As for the experimental part:
Imipramine HCl, an antidepressant, was added to a human albumin solution at room temperature and allowed to equilibrate. Differential solution pH changes, related to free drug concentration, were measured. Ethanol concentrations of 0, 0.2, 0.4, 0.6, 0.8 and 1.0% v/v were tested.

The test system of data set [4] is human albumin. Put plainly: Free chlorpromazine in human albumin solution with ethanol (differential solution pH change). Format: in vitro ADME. The conditions noted are these: ethanol 0 to 1.0% v/v; room temperature.
Method: Chlorpromazine HCl, a tranquilizer, was added to a human albumin solution at room temperature and allowed to equilibrate. Differential solution pH changes, related to free drug concentration, were measured.
The conditions of data set [5]: less than two percent by volume (% v/v); barbiturates (thiopental, secobarbital, pentobarbital), tricyclics (imipramine, chlorpromazine).
From the text: as §1
A short description of data set [6]: Free drug concentration of thiopental in fresh human plasma with ethanol (thin layer chromatography). The conditions noted are these: ethanol 0 to 1.0% v/v, room temperature. It is filed as in vitro ADME. Here is the method: Thiopental was added to fresh human plasma at room temperature and allowed to equilibrate. Thin layer chromatography, used as an indicator of free drug concentration, was compared to thiopental calibrated plates. Ethanol concentrations of 0, 0.1, 0.2, 0.3, 0.4, 0.5, 0.6, 0.7, 0.8 and 1.0% v/v were tested. A maximum free drug concentration occurred at and above 0.6% v/v.

Data set [7] in a line: Thiopental in fresh human plasma with ethanol, equilibrated with coated activated charcoal (uv relative absorbance). It is filed as in vitro ADME. As for the experimental part:
Thiopental was added to fresh human plasma at room temperature and allowed to equilibrate. Relative absorbances, proportional to free drug concentration, were measured spectrophotometrically (uv). Ethanol concentrations of 0, 0.4, 0.7, 1.0, and 1.4% v/v were tested. Drug/plasma and drug/plasma/ethanol solutions were equilibrated with coated activated charcoal.

The test system of data set [8] is human albumin. Put plainly: Free thiopental in human albumin solution with sodium lauryl sulfate (differential solution pH change). The conditions noted are these: sodium lauryl sulfate 0, 2, 4, 6, 8, and 10 mg/ml; room temperature. It is filed as in vitro ADME.
Method: Thiopental was added to a human albumin solution at room temperature and allowed to equilibrate. Differential solution pH changes, related to free drug concentration, were measured.

Counter-ions that a name gives are not always drawn. Like-named read-outs stand apart in the source and are kept apart here. Some results are limits rather than exact numbers.

As for `CC(=O)Oc1ccccc1C(=O)O` [acetylsalicylic acid], the “specificity as liberating agent” value in data set [1] is “specific for bilirubin”. For the compound `CCCCCCCCCCCC(=O)O` [lauric acid], the “effectiveness as liberating agent” value in data set [2] is recorded as “effective”. In the case of `CN(C)CCCN1c2ccccc2CCc2ccccc21` [Imipramine HCl], the “free soluble drug concentration (differential pH responses)” value with human albumin [3] is reported as “significant increases in the free soluble drug concentration”. `CN(C)CCCN1c2ccccc2Sc2ccc(Cl)cc21` [Chlorpromazine HCl]: the “free soluble concentration of the drug” value with human albumin [4] was “increases in free soluble concentration”. On to `CCO` [ethanol], for which the “effectiveness as liberating agent” value in data set [5] was “effective”.

On to `CCCC(C)C1(CC)C(=O)NC(=S)NC1=O` (centres unmarked) [Thiopental], for which, in data set [6], the “ethanol concentration at and above which maximum free drug concentration occurred” value is given as not below 0.6 % v/v. In addition, the “adsorption of the drug by charcoal” value in data set [7] (0 to 1.4% v/v ethanol) was “significant increased adsorption of the drug by charcoal”. Also, the “change in relative absorbance” value in data set [7] (from 0 to 1.4% v/v ethanol) came to 13%. In the data set on human albumin [8], the “differential solution pH change” value is recorded as “continuous pH change” and the “free soluble drug concentration” value is “increasing free soluble drug concentrations”. As to `CCCCCCCCCCCCS(=O)(=O)[O-].[Na+]` [sodium lauryl sulfonate], in data set [2], the “effectiveness as liberating agent” value is “effective”.

(Values after patent publication US4401430A, “Method of and apparatus for detoxifying mammalian hosts” (priority 1981, dated 1983).)
